Reference: US11485742B2, “2-azaspiro[3.4]octane derivatives as M4 agonists” (NOVARTIS AG, priority 2019, dated 2022)

Molecular target: T1, Cloned human M1 receptor (CHRM1) (Homo sapiens, UniProt P11229)
T1 construct: expressed in transfected cells; host or cells: HEK293
T1 sequence (P11229 1-460): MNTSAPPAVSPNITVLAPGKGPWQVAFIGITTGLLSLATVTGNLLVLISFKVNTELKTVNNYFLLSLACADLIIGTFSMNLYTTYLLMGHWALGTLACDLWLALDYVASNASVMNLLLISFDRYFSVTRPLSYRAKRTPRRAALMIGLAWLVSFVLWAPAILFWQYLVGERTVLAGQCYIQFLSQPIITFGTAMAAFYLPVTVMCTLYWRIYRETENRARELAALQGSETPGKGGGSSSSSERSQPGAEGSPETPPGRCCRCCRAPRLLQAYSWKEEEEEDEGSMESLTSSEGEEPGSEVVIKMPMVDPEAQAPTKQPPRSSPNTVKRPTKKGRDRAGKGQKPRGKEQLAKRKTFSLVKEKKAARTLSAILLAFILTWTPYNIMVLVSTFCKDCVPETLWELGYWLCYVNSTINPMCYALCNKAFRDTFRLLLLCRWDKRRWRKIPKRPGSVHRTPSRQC
Experiment: CHRM1 Ca++ Flux Assay (HEK293 M1 cells, agonist mode)
Type: cell-based
Details: for Emax: Percent Activity (PA), read-out: M1 FDSS PA %; for EC50: geometric mean if tested more than once, read-out: M1 FDSS EC50
How it was run: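 HEK293 cells stably expressing human M1 were loaded with Ca++ dye, then given compounds (11-point dose, triplicate) in HBSS −Ca/−Mg, 20 mM HEPES. Ca++ flux was read over 3 min (agonist mode). Four-parameter curves were fitted, with activity as percent of carbachol EC100.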

| Compound | Emax [%] | EC50 [nM] |
| --- | --- | --- |
| c1ccc(C2CCN([C@@H]3COC4(C3)CN(c3nnco3)C4)CC2)c(O[C@@H]2CCOC2)c1 [Example 1O, (S)-2-(1,3,4-oxadiazol-2-yl)-7-(4-(2-(((R)-tetrahydrofuran-3-yl)oxy)phenyl)piperidin-1-yl)-5-oxa-2-azaspiro[3.4]octane] | 69 | 1350 |
| Fc1cc(O[C@@H]2CCOC2)c(C2CCN([C@@H]3COC4(C3)CN(c3nnco3)C4)CC2)cc1F [Example 1R, (S)-7-(4-(4,5-difluoro-2-(((R)-tetrahydrofuran-3-yl)oxy)phenyl)piperidin-1-yl)-2-(1,3,4-oxadiazol-2-yl)-5-oxa-2-azaspiro[3.4]octane] | 76 | 670 |
| Fc1ccc(OCc2ncccn2)c(C2CCN([C@@H]3COC4(C3)CN(c3nnco3)C4)CC2)c1 [Example 2I, (S)-7-(4-(5-fluoro-2-(pyrimidin-2-ylmethoxy)phenyl)piperidin-1-yl)-2-(1,3,4-oxadiazol-2-yl)-5-oxa-2-azaspiro[3.4]octane] | 97 | 98 |
| Cc1cc(COc2ccc(F)cc2C2CCN([C@@H]3COC4(C3)CN(c3nnco3)C4)CC2)on1 [Example 2G, (S)-7-(4-(5-fluoro-2-((3-methylisoxazol-5-yl)methoxy)phenyl)piperidin-1-yl)-2-(1,3,4-oxadiazol-2-yl)-5-oxa-2-azaspiro[3.4]octane] | 89 | 289 |
| CCC1(COc2ccc(F)cc2C2CCN([C@@H]3COC4(C3)CN(c3nnco3)C4)CC2)COC1 [Example 2P, (S)-7-(4-(2-((3-ethyloxetan-3-yl)methoxy)-5-fluorophenyl)piperidin-1-yl)-2-(1,3,4-oxadiazol-2-yl)-5-oxa-2-azaspiro[3.4]octane] | 71 | 2080 |
| Fc1ccc(OC2COC2)c(C2CCN([C@@H]3COC4(C3)CN(c3nnco3)C4)CC2)c1 [Example 1A, (S)-7-(4-(5-fluoro-2-(oxetan-3-yloxy)phenyl)piperidin-1-yl)-2-(1,3,4-oxadiazol-2-yl)-5-oxa-2-azaspiro[3.4]octane] | 92 | 210 |
| COc1ccccc1C1CCN([C@@H]2COC3(C2)CN(c2nnco2)C3)CC1 [Example 1Q, (S)-7-(4-(2-methoxyphenyl)piperidin-1-yl)-2-(1,3,4-oxadiazol-2-yl)-5-oxa-2-azaspiro[3.4]octane] | 81 | 678 |
| CC(C)(O)COc1ccccc1C1CCN([C@@H]2COC3(C2)CN(c2ncns2)C3)CC1 [Example 5Y, (S)-1-(2-(1-(2-(1,2,4-thiadiazol-5-yl)-5-oxa-2-azaspiro[3.4]octan-7-yl)piperidin-4-yl)phenoxy)-2-methylpropan-2-ol] | 47 | 1990 |
| Cc1nnc(COc2ccc(F)cc2C2CCN([C@@H]3COC4(C3)CN(c3nnco3)C4)CC2)o1 [Example 2F, (S)-7-(4-(5-fluoro-2-((5-methyl-1,3,4-oxadiazol-2-yl)methoxy)phenyl)piperidin-1-yl)-2-(1,3,4-oxadiazol-2-yl)-5-oxa-2-azaspiro[3.4]octane] | 103 | 61 |
| CC(C)(O)CCOc1cc(F)ccc1C1CCN([C@@H]2COC3(C2)CN(c2nncs2)C3)CC1 [Example 5V, (S)-4-(2-(1-(2-(1,3,4-thiadiazol-2-yl)-5-oxa-2-azaspiro[3.4]octan-7-yl)piperidin-4-yl)-5-fluorophenoxy)-2-methylbutan-2-ol] | 79 | 786 |
| Fc1ccc(OC[C@H]2CCOC2)c(C2CCN([C@@H]3COC4(C3)CN(c3nnco3)C4)CC2)c1 [Example 1I, (S)-7-(4-(5-fluoro-2-(((S)-tetrahydrofuran-3-yl)methoxy)phenyl)piperidin-1-yl)-2-(1,3,4-oxadiazol-2-yl)-5-oxa-2-azaspiro[3.4]octane] | 54 | 980 |
| CC(C)(O)CCOc1cc(F)ccc1C1CCN([C@@H]2COC3(C2)CN(c2nnco2)C3)CC1 [Example 1T, (S)-4-(2-(1-(2-(1,3,4-oxadiazol-2-yl)-5-oxa-2-azaspiro[3.4]octan-7-yl)piperidin-4-yl)-5-fluorophenoxy)-2-methylbutan-2-ol] | 74 | 640 |
| Fc1ccc(OC2CC3(COC3)C2)c(C2CCN([C@@H]3COC4(C3)CN(c3nncs3)C4)CC2)c1 [Example 5W, (S)-7-(4-(2-((2-oxaspiro[3.3]heptan-6-yl)oxy)-5-fluorophenyl)piperidin-1-yl)-2-(1,3,4-thiadiazol-2-yl)-5-oxa-2-azaspiro[3.4]octane] | 68 | 3590 |
| OC1(COc2ccc(F)cc2C2CCN([C@@H]3COC4(C3)CN(c3nnco3)C4)CC2)COC1 [Example 2U, (S)-3-((2-(1-(2-(1,3,4-oxadiazol-2-yl)-5-oxa-2-azaspiro[3.4]octan-7-yl)piperidin-4-yl)-4-fluorophenoxy)methyl)oxetan-3-ol] | 81 | 223 |
| CC1(COc2ccc(F)cc2C2CCN([C@@H]3COC4(C3)CN(c3nncs3)C4)CC2)COC1 [Example 2B, (S)-7-(4-(5-fluoro-2-((3-methyloxetan-3-yl)methoxy)phenyl)piperidin-1-yl)-2-(1,3,4-thiadiazol-2-yl)-5-oxa-2-azaspiro[3.4]octane] | 91 | 1140 |
| COC(C)(C)CCOc1ccc(F)cc1C1CCN([C@@H]2COC3(C2)CN(c2nnco2)C3)CC1 [Example 1K, (S)-7-(4-(5-fluoro-2-(3-methoxy-3-methylbutoxy)phenyl)piperidin-1-yl)-2-(1,3,4-oxadiazol-2-yl)-5-oxa-2-azaspiro[3.4]octane] | 58 | 1590 |
| c1ccc(C2CCN([C@@H]3COC4(C3)CN(c3nnco3)C4)CC2)c(-c2cncnc2)c1 [Example 1W, (S)-2-(1,3,4-oxadiazol-2-yl)-7-(4-(2-(pyrimidin-5-yl)phenyl)piperidin-1-yl)-5-oxa-2-azaspiro[3.4]octane] | 94 | 335 |
| Fc1ccc(OC2COC2)c(C2CCN([C@@H]3COC4(C3)CN(c3ncon3)C4)CC2)c1 [Example 6B, (S)-7-(4-(5-fluoro-2-(oxetan-3-yloxy)phenyl)piperidin-1-yl)-2-(1,2,4-oxadiazol-3-yl)-5-oxa-2-azaspiro[3.4]octane] | 88 | 490 |
| Fc1ccc(OC[C@H]2CCOC2)c(C2CCN([C@@H]3COC4(C3)CN(c3nncs3)C4)CC2)c1 [Example 5X, (S)-7-(4-(5-fluoro-2-(((S)-tetrahydrofuran-3-yl)methoxy)phenyl)piperidin-1-yl)-2-(1,3,4-thiadiazol-2-yl)-5-oxa-2-azaspiro[3.4]octane] | 75 | 2340 |
| c1ccc(C2CCN([C@@H]3COC4(C3)CN(c3nnco3)C4)CC2)c(OC2COC2)c1 [Example 1P, (S)-2-(1,3,4-oxadiazol-2-yl)-7-(4-(2-(oxetan-3-yloxy)phenyl)piperidin-1-yl)-5-oxa-2-azaspiro[3.4]octane] | 76 | 439 |
| CCc1nnc(COc2ccc(F)cc2C2CCN([C@@H]3COC4(C3)CN(c3nnco3)C4)CC2)s1 [Example 2T, (S)-7-(4-(2-((5-ethyl-1,3,4-thiadiazol-2-yl)methoxy)-5-fluorophenyl)piperidin-1-yl)-2-(1,3,4-oxadiazol-2-yl)-5-oxa-2-azaspiro[3.4]octane] | 89 | 63 |
| CC(C)(O)COc1ccc(F)cc1C1CCN([C@@H]2COC3(C2)CN(c2nnco2)C3)CC1 [Example 1U, (S)-1-(2-(1-(2-(1,3,4-oxadiazol-2-yl)-5-oxa-2-azaspiro[3.4]octan-7-yl)piperidin-4-yl)-4-fluorophenoxy)-2-methylpropan-2-ol] | 75 | 961 |
| Fc1ccc(OCC2COC2)c(C2CCN([C@@H]3COC4(C3)CN(c3nnco3)C4)CC2)c1 [Example 2H, (S)-7-(4-(5-fluoro-2-(oxetan-3-ylmethoxy)phenyl)piperidin-1-yl)-2-(1,3,4-oxadiazol-2-yl)-5-oxa-2-azaspiro[3.4]octane] | 101 | 542 |
| COc1cc(F)ccc1C1CCN([C@@H]2COC3(C2)CN(c2nnco2)C3)CC1 [Example 1S, (S)-7-(4-(4-fluoro-2-methoxyphenyl)piperidin-1-yl)-2-(1,3,4-oxadiazol-2-yl)-5-oxa-2-azaspiro[3.4]octane] | 71 | 634 |
| COc1ccc(F)cc1C1CCN([C@@H]2COC3(C2)CN(c2nnco2)C3)CC1 [Example 1V, (S)-7-(4-(5-fluoro-2-methoxyphenyl)piperidin-1-yl)-2-(1,3,4-oxadiazol-2-yl)-5-oxa-2-azaspiro[3.4]octane] | 76 | 663 |
| Fc1ccc(OCC2(F)COC2)c(C2CCN([C@@H]3COC4(C3)CN(c3nnco3)C4)CC2)c1 [Example 2J, (S)-7-(4-(5-fluoro-2-((3-fluorooxetan-3-yl)methoxy)phenyl)piperidin-1-yl)-2-(1,3,4-oxadiazol-2-yl)-5-oxa-2-azaspiro[3.4]octane] | 103 | 411 |
| CC1(COc2ccc(F)cc2C2CCN([C@@H]3COC4(C3)CN(c3nnco3)C4)CC2)COC1 [Example 2K, (S)-7-(4-(5-fluoro-2-((3-methyloxetan-3-yl)methoxy)phenyl)piperidin-1-yl)-2-(1,3,4-oxadiazol-2-yl)-5-oxa-2-azaspiro[3.4]octane] | 97 | 1360 |
